# Literature values, collected in patent publication US8545896B2, “Compositions, kits and methods for nutrition supplementation” (Chemo S. A. France, priority 2011, dated 2013).
# Settings: intake of about 1000 IU per day, all adults
smiles,measurement,value
"C=C1CC[C@H](O)C/C1=C/C=C1\CCC[C@]2(C)[C@@H]([C@H](C)CCCC(C)C)CC[C@@H]12 [vitamin D3, cholecalciferol]",share of the population brought up to the 30 ng/ml serum range for 25-hydroxyvitamin D,at least 50%
